From ChEMBL document CHEMBL3352493, “Xylarianaphthol-1, a novel dinaphthofuran derivative, activates p21 promoter in a p53-independent manner” (Bioorg Med Chem Lett, 2014)
The source made the active and inactive calls. The calls are words filed in the database; no cut-off is given here.

Experiments:
MG-63 [1] = assay: Induction of p53-independent p21 promoter activation (unknown origin) transfected in human MG63 cells expressing luciferase reporter gene at 0.3 uM by luciferase reporter gene assay relative to control; assay type: cell-based
MG-63 [2] = assay: Induction of p53-independent p21 promoter activation (unknown origin) transfected in human MG63 cells expressing luciferase reporter gene by luciferase reporter gene assay; assay type: cell-based
MG-63 [3] = assay: Increase in p21 protein expression in wild-type human MG63 cells at 0.01 to 0.3 uM by Western blotting method; assay type: functional, cell-based

In the case of `COc1cccc2c1c(O)cc1oc3c(ccc4cccc(O)c43)c12`, the fold change (FC) (MG-63 [1]) is reported as 2.5, the Activity (MG-63 [2]) is reported as “Dose-dependent effect” and the Activity (MG-63 [3]) is reported as “Active”.
